± gives the standard deviation of the averaged measurements.
Key:
Danio rerio embryo [1] = assay: spontaneous tail coiling frequency (coils/min/embryo); higher = more spontaneous movement; details: 25 hpf
Protocol: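 Spontaneous tail coilings of zebrafish embryos exposed from 2 hpf were recorded at 24-25 hpf in 1-min videos and detected by a KNIME workflow from grey-value variance. Betamethasone was tested as the dipropionate, diflorasone as the diacetate.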

Danio rerio embryo [2] = assay: EC20 Eye-jaw distance_Decrease; higher = less potent; details: exposure time: 4 dpf
Protocol: (§1)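 Zebrafish embryos (UFZ-OBI strain) were exposed from 2 hpf for 48 h (2 dpf) or 96 h (4 dpf) at 28 °C; spontaneous tail coiling was scored at 25 hpf. Morphological features from automated image analysis (FishInspector), heart rate and locomotor response were fitted with drc models. Quantal endpoints were dichotomised at 2.5 SD from controls and fitted with a log-logistic model; heart rate, pigmentation and STC were normalised to the replicate control mean. Betamethasone was tested as betamethasone dipropionate, diflorasone as diflorasone diacetate.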

Danio rerio embryo [3] = assay: EC10 Eye size_Decrease; higher = less potent; details: exposure time: 4 dpf
Protocol: as §1

Danio rerio embryo [4] = assay: EC20 Lack of SB; higher = less potent; details: exposure time: 4 dpf
Protocol: as §1

Danio rerio embryo [5] = assay: EC50 Eye size_Decrease; details: exposure time: 4 dpf
Protocol: as §1

Danio rerio embryo [6] = assay: EC10 Curvature_Increase; higher = less potent
Protocol: as §1

Danio rerio embryo [7] = assay: EC20 Pericard size_Increase; higher = less potent
Protocol: as §1

Danio rerio embryo [8] = assay: EC10 Any effect; higher = less potent
Protocol: as §1

Danio rerio embryo [9] = details: exposure time: 4 dpf
Protocol: as §1

Danio rerio embryo [10] = details: exposure time: 4 dpf; remark: listed apart in the source
Protocol: as §1

Danio rerio embryo [11] = assay: EC50 Pericard size_Increase
Protocol: as §1

Danio rerio embryo [12] = assay: EC10 Bladder size_Decrease; higher = less potent; details: exposure time: 4 dpf
Protocol: as §1

Danio rerio embryo [13] = assay: EC10 Body length_Decrease; higher = less potent; details: exposure time: 4 dpf
Protocol: as §1

Danio rerio embryo [14] = assay: EC10 Pericard size_Increase; higher = less potent
Protocol: as §1

Danio rerio embryo [15] = assay: EC50 Eye-jaw distance_Decrease; details: exposure time: 4 dpf
Protocol: as §1

Danio rerio embryo [16] = assay: EC10 LMR dark; higher = less potent; details: exposure time: 4 dpf
Protocol: as §1

Danio rerio embryo [17] = assay: EC20 Heart rate; higher = less potent; details: exposure time: 4 dpf
Protocol: as §1

Danio rerio embryo [18] = assay: EC10 Lack of SB; higher = less potent; details: exposure time: 4 dpf
Protocol: as §1

Danio rerio embryo [19] = assay: EC10 Otolith-eye distance_Decrease; higher = less potent; details: exposure time: 4 dpf
Protocol: as §1

Danio rerio embryo [20] = assay: EC50 Otolith-eye distance_Decrease; details: exposure time: 4 dpf
Protocol: as §1

Danio rerio embryo [21] = assay: EC20 Bladder size_Decrease; higher = less potent; details: exposure time: 4 dpf
Protocol: as §1

Danio rerio embryo [22] = assay: EC20 Eye size_Decrease; higher = less potent; details: exposure time: 4 dpf
Protocol: as §1

Danio rerio embryo [23] = details: exposure time: 4 dpf; remark: listed apart in the source
Protocol: as §1

Danio rerio embryo [24] = assay: EC10 Yolk sac size_Increase; higher = less potent
Protocol: as §1

Danio rerio embryo [25] = test system: Danio rerio embryo
Protocol: as §1

Danio rerio embryo [26] = assay: EC10 Eye-jaw distance_Decrease; higher = less potent; details: exposure time: 4 dpf
Protocol: as §1

Danio rerio embryo [27] = assay: EC20 Body length_Decrease; higher = less potent; details: exposure time: 4 dpf
Protocol: as §1

Danio rerio embryo [28] = assay: EC20 Otolith-eye distance_Decrease; higher = less potent; details: exposure time: 4 dpf
Protocol: as §1

Danio rerio embryo [29] = assay: EC50 Bladder size_Decrease; details: exposure time: 4 dpf
Protocol: as §1

Danio rerio embryo [30] = assay: EC20 Any effect; higher = less potent
Protocol: as §1

Danio rerio embryo [31] = assay: EC20 Yolk sac size_Increase; higher = less potent
Protocol: as §1

Danio rerio embryo [32] = assay: EC50 Curvature_Increase
Protocol: as §1

Danio rerio embryo [33] = assay: EC50 Body length_Decrease; details: exposure time: 4 dpf
Protocol: as §1

Danio rerio embryo [34] = assay: EC10 Heart rate; higher = less potent; details: exposure time: 4 dpf
Protocol: as §1

Danio rerio embryo [35] = assay: EC20 Curvature_Increase; higher = less potent
Protocol: as §1

Danio rerio embryo [36] = assay: EC50 Yolk sac size_Increase
Protocol: as §1

Danio rerio embryo [37] = assay: EC20 LMR dark; higher = less potent; details: exposure time: 4 dpf
Protocol: as §1

CC1(C)O[C@@H]2[C@@H](CO[C@@]3(COS(N)(=O)=O)OC(C)(C)O[C@@H]23)O1 [Topiramate]
Details	EC10 Any effect [µM]	EC10 Curvature Increase [µM]	EC10 Pericard size Increase [µM]	EC10 Yolk sac size Increase [µM]	EC20 Any effect [µM]	EC20 Curvature Increase [µM]	EC20 Pericard size Increase [µM]	EC20 Yolk sac size Increase [µM]	EC50 Any effect [µM]	EC50 Curvature Increase [µM]	EC50 Pericard size Increase [µM]	EC50 Yolk sac size Increase [µM]	spontaneous tail coiling frequency
Danio rerio embryo [1], 49.6 µM	–	–	–	–	–	–	–	–	–	–	–	–	0.85
Danio rerio embryo [1], 81.8 µM	–	–	–	–	–	–	–	–	–	–	–	–	1.99 ± 1.7
Danio rerio embryo [1], 135 µM	–	–	–	–	–	–	–	–	–	–	–	–	2.03 ± 1.4
Danio rerio embryo [1], 222.7 µM	–	–	–	–	–	–	–	–	–	–	–	–	0.24
Danio rerio embryo [1], 367.5 µM	–	–	–	–	–	–	–	–	–	–	–	–	1.31 ± 0.99
Danio rerio embryo [1], 606.3 µM	–	–	–	–	–	–	–	–	–	–	–	–	2.44 ± 2
Danio rerio embryo [1], 1000 µM	–	–	–	–	–	–	–	–	–	–	–	–	1.46
Danio rerio embryo [1], 1000.4 µM	–	–	–	–	–	–	–	–	–	–	–	–	2.49
Danio rerio embryo [1], 1473.4 µM	–	–	–	–	–	–	–	–	–	–	–	–	2.59
Danio rerio embryo [6], exposure time: 2 dpf	–	986	–	–	–	–	–	–	–	–	–	–	–
Danio rerio embryo [6], exposure time: 4 dpf	–	455	–	–	–	–	–	–	–	–	–	–	–
Danio rerio embryo [7], exposure time: 2 dpf	–	–	–	–	–	–	33	–	–	–	–	–	–
Danio rerio embryo [7], exposure time: 4 dpf	–	–	–	–	–	–	302	–	–	–	–	–	–
Danio rerio embryo [8], exposure time: 2 dpf	22	–	–	–	–	–	–	–	–	–	–	–	–
Danio rerio embryo [8], exposure time: 4 dpf	22.9	–	–	–	–	–	–	–	–	–	–	–	–
Danio rerio embryo [11], exposure time: 2 dpf	–	–	–	–	–	–	–	–	–	–	208	–	–
Danio rerio embryo [11], exposure time: 4 dpf	–	–	–	–	–	–	–	–	–	–	563	–	–
Danio rerio embryo [14], exposure time: 2 dpf	–	–	11.2	–	–	–	–	–	–	–	–	–	–
Danio rerio embryo [14], exposure time: 4 dpf	–	–	210	–	–	–	–	–	–	–	–	–	–
Danio rerio embryo [24], exposure time: 2 dpf	–	–	–	601	–	–	–	–	–	–	–	–	–
Danio rerio embryo [24], exposure time: 4 dpf	–	–	–	98.8	–	–	–	–	–	–	–	–	–
Danio rerio embryo [25], exposure time: 2 dpf	–	–	–	–	–	–	–	–	321	–	–	–	–
Danio rerio embryo [25], exposure time: 4 dpf	–	–	–	–	–	–	–	–	94.9	–	–	–	–
Danio rerio embryo [30], exposure time: 2 dpf	–	–	–	–	59.1	–	–	–	–	–	–	–	–
Danio rerio embryo [30], exposure time: 4 dpf	–	–	–	–	38.7	–	–	–	–	–	–	–	–
Danio rerio embryo [31], exposure time: 2 dpf	–	–	–	–	–	–	–	722	–	–	–	–	–
Danio rerio embryo [31], exposure time: 4 dpf	–	–	–	–	–	–	–	149	–	–	–	–	–
Danio rerio embryo [32], exposure time: 2 dpf	–	–	–	–	–	–	–	–	–	1250	–	–	–
Danio rerio embryo [32], exposure time: 4 dpf	–	–	–	–	–	–	–	–	–	927	–	–	–
Danio rerio embryo [35], exposure time: 2 dpf	–	–	–	–	–	1080	–	–	–	–	–	–	–
Danio rerio embryo [35], exposure time: 4 dpf	–	–	–	–	–	591	–	–	–	–	–	–	–
Danio rerio embryo [36], exposure time: 2 dpf	–	–	–	–	–	–	–	–	–	–	–	990	–
Danio rerio embryo [36], exposure time: 4 dpf	–	–	–	–	–	–	–	–	–	–	–	303	–

Details	EC10 Bladder size Decrease [µM]	EC10 Body length Decrease [µM]	EC10 Eye size Decrease [µM]	EC10 Eye-jaw distance Decrease [µM]	EC10 Heart rate [µM]	EC10 LMR dark [µM]	EC10 Lack of SB [µM]	EC10 Otolith-eye distance Decrease [µM]	EC20 Bladder size Decrease [µM]	EC20 Body length Decrease [µM]	EC20 Eye size Decrease [µM]	EC20 Eye-jaw distance Decrease [µM]	EC20 Heart rate [µM]	EC20 LMR dark [µM]	EC20 Lack of SB [µM]	EC20 Otolith-eye distance Decrease [µM]	EC50 Bladder size Decrease [µM]	EC50 Body length Decrease [µM]	EC50 Eye size Decrease [µM]	EC50 Eye-jaw distance Decrease [µM]	EC50 Heart rate [µM]	EC50 LMR dark [µM]	EC50 Lack of SB [µM]	EC50 Otolith-eye distance Decrease [µM]
Danio rerio embryo [2]	–	–	–	–	–	–	–	–	–	–	–	165	–	–	–	–	–	–	–	–	–	–	–	–
Danio rerio embryo [3]	–	–	57.7	–	–	–	–	–	–	–	–	–	–	–	–	–	–	–	–	–	–	–	–	–
Danio rerio embryo [4]	–	–	–	–	–	–	–	–	–	–	–	–	–	–	40.7	–	–	–	–	–	–	–	–	–
Danio rerio embryo [5]	–	–	–	–	–	–	–	–	–	–	–	–	–	–	–	–	–	–	242	–	–	–	–	–
Danio rerio embryo [9]	–	–	–	–	–	–	–	–	–	–	–	–	–	–	–	–	–	–	–	–	–	–	69.7	–
Danio rerio embryo [10]	–	–	–	–	–	–	–	–	–	–	–	–	–	–	–	–	–	–	–	–	–	461	–	–
Danio rerio embryo [12]	28.2	–	–	–	–	–	–	–	–	–	–	–	–	–	–	–	–	–	–	–	–	–	–	–
Danio rerio embryo [13]	–	24.1	–	–	–	–	–	–	–	–	–	–	–	–	–	–	–	–	–	–	–	–	–	–
Danio rerio embryo [15]	–	–	–	–	–	–	–	–	–	–	–	–	–	–	–	–	–	–	–	236	–	–	–	–
Danio rerio embryo [16]	–	–	–	–	–	273	–	–	–	–	–	–	–	–	–	–	–	–	–	–	–	–	–	–
Danio rerio embryo [17]	–	–	–	–	–	–	–	–	–	–	–	–	28.3	–	–	–	–	–	–	–	–	–	–	–
Danio rerio embryo [18]	–	–	–	–	–	–	29.7	–	–	–	–	–	–	–	–	–	–	–	–	–	–	–	–	–
Danio rerio embryo [19]	–	–	–	–	–	–	–	24.4	–	–	–	–	–	–	–	–	–	–	–	–	–	–	–	–
Danio rerio embryo [20]	–	–	–	–	–	–	–	–	–	–	–	–	–	–	–	–	–	–	–	–	–	–	–	80.9
Danio rerio embryo [21]	–	–	–	–	–	–	–	–	34.7	–	–	–	–	–	–	–	–	–	–	–	–	–	–	–
Danio rerio embryo [22]	–	–	–	–	–	–	–	–	–	–	97.9	–	–	–	–	–	–	–	–	–	–	–	–	–
Danio rerio embryo [23]	–	–	–	–	–	–	–	–	–	–	–	–	–	–	–	–	–	–	–	–	87.8	–	–	–
Danio rerio embryo [26]	–	–	–	133	–	–	–	–	–	–	–	–	–	–	–	–	–	–	–	–	–	–	–	–
Danio rerio embryo [27]	–	–	–	–	–	–	–	–	–	46.4	–	–	–	–	–	–	–	–	–	–	–	–	–	–
Danio rerio embryo [28]	–	–	–	–	–	–	–	–	–	–	–	–	–	–	–	37.9	–	–	–	–	–	–	–	–
Danio rerio embryo [29]	–	–	–	–	–	–	–	–	–	–	–	–	–	–	–	–	49.5	–	–	–	–	–	–	–
Danio rerio embryo [33]	–	–	–	–	–	–	–	–	–	–	–	–	–	–	–	–	–	142	–	–	–	–	–	–
Danio rerio embryo [34]	–	–	–	–	13.3	–	–	–	–	–	–	–	–	–	–	–	–	–	–	–	–	–	–	–
Danio rerio embryo [37]	–	–	–	–	–	–	–	–	–	–	–	–	–	331	–	–	–	–	–	–	–	–	–	–

CC(=O)OCC(=O)[C@@]1(OC(C)=O)[C@@H](C)C[C@H]2[C@@H]3C[C@H](F)C4=CC(=O)C=C[C@]4(C)[C@@]3(F)[C@@H](O)C[C@@]21C [diflorasone diacetate]
Details	EC10 Pericard size Increase [µM]	EC20 Pericard size Increase [µM]	EC50 Pericard size Increase [µM]	spontaneous tail coiling frequency
Danio rerio embryo [1], 0.63 µM	–	–	–	2.46
Danio rerio embryo [1], 1.2 µM	–	–	–	2.87
Danio rerio embryo [1], 1.26 µM	–	–	–	2.52
Danio rerio embryo [1], 2 µM	–	–	–	2.33
Danio rerio embryo [1], 2.5 µM	–	–	–	2.17
Danio rerio embryo [1], 3 µM	–	–	–	1.89
Danio rerio embryo [1], 4 µM	–	–	–	2.36
Danio rerio embryo [1], 6 µM	–	–	–	2.7
Danio rerio embryo [1], 10.1 µM	–	–	–	1.56
Danio rerio embryo [7], exposure time: 4 dpf	–	0.127	–	–
Danio rerio embryo [11], exposure time: 4 dpf	–	–	2.08	–
Danio rerio embryo [14], exposure time: 4 dpf	0.025	–	–	–

Details	EC10 Bladder size Decrease [µM]	EC10 Eye-jaw distance Decrease [µM]	EC10 Lack of SB [µM]	EC20 Bladder size Decrease [µM]	EC20 Eye-jaw distance Decrease [µM]	EC20 Lack of SB [µM]	EC50 Bladder size Decrease [µM]	EC50 Eye-jaw distance Decrease [µM]	EC50 Lack of SB [µM]
Danio rerio embryo [2]	–	–	–	–	0.041	–	–	–	–
Danio rerio embryo [4]	–	–	–	–	–	0.099	–	–	–
Danio rerio embryo [9]	–	–	–	–	–	–	–	–	0.379
Danio rerio embryo [12]	0.037	–	–	–	–	–	–	–	–
Danio rerio embryo [15]	–	–	–	–	–	–	–	2.38	–
Danio rerio embryo [18]	–	–	0.045	–	–	–	–	–	–
Danio rerio embryo [21]	–	–	–	0.066	–	–	–	–	–
Danio rerio embryo [26]	–	0.004	–	–	–	–	–	–	–
Danio rerio embryo [29]	–	–	–	–	–	–	0.176	–	–

From the supplement of paper PMC9013687
